# Laboratory results taken from US20240336574A1 (LATIGO BIOTHERAPEUTICS, INC., priority 2021, published 2024).
# Like-named read-outs stand apart in the source and are kept apart here.
# Molecular target: T1, recombinant human NaV1.8 stably transfected HEK cells (Homo sapiens, UniProt Q9Y5Y9)
# T1 construct: expressed in transfected cells; host or cells: HEK cells, stably transfected
# Assay: Compound profiling on NaV1.8, human NaV1.8 cell line, SyncroPatch384PE automated patch clamp assay (Example 102, first set of compounds, Table 16)
# Format: cell-based
# Conditions: human NaV1.8 HEK cells, Table 16 (first set of compounds)
# Procedure: Compound Profiling on NaV1.8—Human NaV1.8 Cell Line—SyncroPatch384PE Assay
# Compounds were tested on recombinant human NaV1.8 stably transfected HEK cells using the SyncroPatch384PE system, an automated patch clamp device. Cells were cultured at 37° C./5% CO2 in DMEM medium supplemented with GlutaMAX I, NEAA 1%, FBS 10% and seeded in T175 flasks. Cells were cultured at 30° C. one day prior to recording sodium currents. On the day of the recordings, cells were detached with 0.05% Trypsin-EDTA, resuspended in serum free DMEM medium and placed into the SyncroPatch384PE 6° C. pre-cooled cell hotel and shaken at 200 rpm. Intracellular solution (IC) contained, in mM: 10, CsCl; 110, CsF; 20, EGTA; 10, HEPES. Extracellular solution (EC) contained, in mM: 140, NaCl; 4, KCl; 5, Glucose; 10, HEPES; 2, CaCl2; 1, MgCl2. Washing solution contained, in mM: 40, NMDG; 100, NaCl; 4, KCl; 10, Glucose; 10, HEPES; 5, CaCl2; 1, MgCl2.
# Compounds were tested in triplicate in 0.1% DMSO and 0.030% Pluronic Acid. Compounds were diluted 1:3 in EC solution to create a 10-point concentration response curve, spanning a final concentration range from 20-0.001 μM in the assay plate. Each plate contained tetracaine and another tool compound as positive controls. Up to 8 compounds were tested on one plate. 250 μM tetracaine and 0.1% DMSO were used as high and low controls, respectively. Whole cell patch clamp recordings were conducted according to Nanion's standard procedure for SyncroPatch384PE®. Cells were held at a holding potential of −120 mV. A depolarization step to 10 mV for 30 ms was applied (P1 measurement), followed by a hyperpolarization step to −100 mV for 100 ms. An inactivation step at −40 mV for 10 sec was applied before stepping to −100 mV for 20 ms, followed by a step to 10 mV for 30 ms (P2 measurement) and then back to −100 mV for 30 ms. Sweep interval was 15 sec with a sampling rate of 10 kHz. Following establishment of the whole-cell configuration in EC, two washing steps with reference buffer were performed to stabilize the baseline. Compounds were then applied by the SynchroPatch into each well and the current was recorded for five minutes in EC, followed by application of tetracaine to achieve full block at the end of the experiment. The potency of the compounds was assessed on two read-outs, resting state block (P1 measurement) or inactivated state block (P2 measurement) to obtain IC50 values. Values were normalized to high (tetracaine) and low (DMSO) controls. The IC50 values are listed in Table 16 as follows: “A” represents an IC50 less than or equal to 20 nM, “B” represents an IC50 greater than 20 nM to less than or equal to 40 nM, “C” represents an IC50 greater than 40 nM to less than or equal to 200 nM, “D” represents an IC50 greater than 200 nM to less than or equal to 500 nM.
# [1] = inactivated state block (P2 measurement), read-out: P2IC50
# [2] = resting state block (P1 measurement), read-out: P1IC50
# T1 sequence (Q9Y5Y9 whole entry): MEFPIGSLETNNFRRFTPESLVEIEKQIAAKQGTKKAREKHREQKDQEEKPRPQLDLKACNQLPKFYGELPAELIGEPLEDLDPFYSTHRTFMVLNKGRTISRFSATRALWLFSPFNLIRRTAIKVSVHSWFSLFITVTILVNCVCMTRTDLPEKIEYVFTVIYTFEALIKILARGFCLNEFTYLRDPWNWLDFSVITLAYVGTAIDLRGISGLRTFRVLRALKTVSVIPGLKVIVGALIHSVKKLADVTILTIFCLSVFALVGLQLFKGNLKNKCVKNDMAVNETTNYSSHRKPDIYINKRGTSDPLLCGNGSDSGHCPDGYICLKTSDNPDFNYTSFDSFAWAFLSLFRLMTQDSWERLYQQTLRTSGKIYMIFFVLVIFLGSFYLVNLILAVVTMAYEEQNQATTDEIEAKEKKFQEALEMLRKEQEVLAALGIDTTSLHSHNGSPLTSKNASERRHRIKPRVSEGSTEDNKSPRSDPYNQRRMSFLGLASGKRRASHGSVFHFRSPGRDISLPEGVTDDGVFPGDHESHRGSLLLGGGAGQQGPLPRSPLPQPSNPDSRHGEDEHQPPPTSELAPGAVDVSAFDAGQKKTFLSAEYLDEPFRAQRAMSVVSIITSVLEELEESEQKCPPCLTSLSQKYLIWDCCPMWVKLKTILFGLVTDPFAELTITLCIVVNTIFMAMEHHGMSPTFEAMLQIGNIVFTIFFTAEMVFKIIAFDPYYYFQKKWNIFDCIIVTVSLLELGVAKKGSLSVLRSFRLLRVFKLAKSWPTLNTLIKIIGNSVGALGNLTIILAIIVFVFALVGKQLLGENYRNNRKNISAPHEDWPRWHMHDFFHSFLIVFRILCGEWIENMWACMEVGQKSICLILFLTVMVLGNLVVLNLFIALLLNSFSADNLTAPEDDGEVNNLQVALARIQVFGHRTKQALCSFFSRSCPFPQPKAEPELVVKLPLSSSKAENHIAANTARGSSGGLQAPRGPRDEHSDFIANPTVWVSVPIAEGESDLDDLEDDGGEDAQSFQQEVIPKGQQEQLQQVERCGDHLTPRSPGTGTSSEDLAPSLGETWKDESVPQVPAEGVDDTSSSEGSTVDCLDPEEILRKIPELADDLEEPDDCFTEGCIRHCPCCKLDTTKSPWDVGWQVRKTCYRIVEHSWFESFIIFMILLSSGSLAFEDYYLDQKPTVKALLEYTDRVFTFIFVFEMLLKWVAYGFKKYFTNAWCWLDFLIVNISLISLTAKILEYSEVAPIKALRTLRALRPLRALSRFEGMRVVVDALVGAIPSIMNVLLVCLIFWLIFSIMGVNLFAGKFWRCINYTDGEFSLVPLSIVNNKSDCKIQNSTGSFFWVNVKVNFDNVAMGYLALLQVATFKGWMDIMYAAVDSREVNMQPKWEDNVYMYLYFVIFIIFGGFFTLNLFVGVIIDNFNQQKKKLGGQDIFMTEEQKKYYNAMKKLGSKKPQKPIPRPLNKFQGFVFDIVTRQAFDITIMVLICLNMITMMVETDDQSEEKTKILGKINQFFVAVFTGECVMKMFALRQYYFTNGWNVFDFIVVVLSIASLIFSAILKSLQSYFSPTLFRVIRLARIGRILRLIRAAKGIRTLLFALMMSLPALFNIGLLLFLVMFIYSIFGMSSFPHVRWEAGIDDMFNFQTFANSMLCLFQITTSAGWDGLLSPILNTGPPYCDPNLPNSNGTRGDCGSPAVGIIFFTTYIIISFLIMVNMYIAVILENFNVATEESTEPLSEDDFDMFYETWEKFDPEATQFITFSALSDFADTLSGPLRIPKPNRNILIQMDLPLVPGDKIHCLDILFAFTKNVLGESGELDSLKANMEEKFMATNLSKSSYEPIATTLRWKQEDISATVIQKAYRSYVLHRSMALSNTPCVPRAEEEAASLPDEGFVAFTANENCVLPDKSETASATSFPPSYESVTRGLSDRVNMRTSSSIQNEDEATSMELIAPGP
Structure (SMILES),IC50 [1] [µM],IC50 [2] [µM]
Cc1c(C(F)(F)F)nnc(Oc2ccc(OC(C)C)c(F)c2F)c1C(=O)Nc1cccc(S(C)(=O)=O)c1 [Compound 1424],≤ 0.02,≤ 0.02
COc1c(Oc2nnc(C(F)(F)F)c(C)c2C(=O)Nc2cccc(S(C)(=O)=O)c2)ccc(F)c1F [Compound 1425],≤ 0.02,≤ 0.02
Cc1c(C(F)(F)F)nnc(Oc2ccc(OC3CCC3)c(F)c2F)c1C(=O)Nc1cccc(S(C)(=O)=O)c1 [Compound 1426],≤ 0.02,≤ 0.02
COc1ccc(Oc2nnc(C(F)(F)F)c(C)c2C(=O)Nc2cccc(S(C)(=O)=O)c2)c(C)c1F [Compound 1427],≤ 0.02,≤ 0.02
COc1ccc(Oc2nnc(C(F)(F)F)c(C)c2C(=O)Nc2cccc(S(C)(=O)=O)c2)c(C)n1 [Compound 1428],0.04 to 0.2,0.04 to 0.2
CCOC(=O)c1cc(NC(=O)c2c(Oc3ccc(F)cc3C)nnc(C(F)(F)F)c2C)cc(S(C)(=O)=O)c1 [Compound 1429],0.2 to 0.5,0.2 to 0.5
"Cc1cc(F)ccc1Oc1nnc(N2CC(F)C2)c(C)c1C(=O)Nc1cccc(S(C)(=N)=O)c1 (centres unmarked) [Compound 1431, 6-(3-Fluoroazetidin-1-yl)-3-(4-fluoro-2-methyl-phenoxy)-5-methyl-N-[3-(methylsulfonimidoyl)phenyl]pyridazine-4-carboxamide]",0.2 to 0.5,0.2 to 0.5
"Cc1cc(F)ccc1Oc1nnc(C#N)c(C)c1C(=O)Nc1cccc(S(C)(=N)=O)c1 (centres unmarked) [Compound 1432, 6-cyano-3-(4-fluoro-2-methyl-phenoxy)-5-methyl-N-[3-(methylsulfonimidoyl)phenyl]pyridazine-4-carboxamide]",0.2 to 0.5,0.2 to 0.5
"Cc1cc(F)ccc1Oc1nnc(C2CC2)c(C)c1C(=O)Nc1cccc(S(C)(=N)=O)c1 (centres unmarked) [Compound 1433, 6-cyclopropyl-3-(4-fluoro-2-methyl-phenoxy)-5-methyl-N-[3-(methylsulfonimidoyl)phenyl]pyridazine-4-carboxamide]",0.04 to 0.2,0.04 to 0.2
"CC#Cc1nnc(Oc2ccc(F)cc2C)c(C(=O)Nc2cccc(S(C)(=N)=O)c2)c1C (centres unmarked) [Compound 1434, 3-(4-Fluoro-2-methylphenoxy)-5-methyl-N-(3-(S-methylsulfonimidoyl)phenyl)-6-(prop-1-yn-1-yl)pyridazine-4-carboxamide]",0.2 to 0.5,0.2 to 0.5
"COc1c(Oc2nnc(C)c(C)c2C(=O)Nc2cccc(S(C)(=N)=O)c2)ccc(F)c1F (centres unmarked) [Compound 1435, 3-(3,4-difluoro-2-methoxyphenoxy)-5,6-dimethyl-N-(3-(S-methylsulfonimidoyl)phenyl)pyridazine-4-carboxamide]",0.2 to 0.5,0.2 to 0.5
"COc1cc(C#N)ccc1Oc1nnc(-c2ccccc2)c(C)c1C(=O)Nc1cccc(S(C)(=N)=O)c1 (centres unmarked) [Compound 1436, 3-(4-cyano-2-methoxyphenoxy)-5-methyl-N-(3-(S-methylsulfonimidoyl)phenyl)-6-phenylpyridazine-4-carboxamide]",0.04 to 0.2,0.02 to 0.04
"COc1cc(C#N)ccc1Oc1nnc(C(F)(F)F)c(C)c1C(=O)Nc1cccc(C(=O)N2CC(O)C2)c1 [Compound 1437, 3-(4-cyano-2-methoxy-phenoxy)-N-[3-(3-hydroxyazetidine-1-carbonyl)phenyl]-5-methyl-6-(trifluoromethyl)pyridazine-4-carboxamide]",0.04 to 0.2,0.04 to 0.2
"COc1cc(C#N)ccc1Oc1nnc(C(F)(F)F)c(C)c1C(=O)Nc1cccc(C(=O)N2CCNCC2)c1 [Compound 1438, 3-(4-cyano-2-methoxy-phenoxy)-5-methyl-N-[3-(piperazine-1-carbonyl)phenyl]-6-(trifluoromethyl)pyridazine-4-carboxamide]",0.04 to 0.2,0.04 to 0.2
"COCCNS(=O)(=O)c1cccc(NC(=O)c2c(Oc3ccc(C#N)cc3OC)nnc(C(F)(F)F)c2C)c1 [Compound 1439, 3-(4-cyano-2-methoxy-phenoxy)-N-[3-(2-methoxyethylsulfamoyl)phenyl]-5-methyl-6-(trifluoromethyl)pyridazine-4-carboxamide]",0.04 to 0.2,0.04 to 0.2
"COc1cc(C#N)ccc1Oc1nnc(C(F)(F)F)c(C)c1C(=O)Nc1cccc(C(=O)NCC2(F)CC2)c1 [Compound 1440, 3-(4-cyano-2-methoxy-phenoxy)-N-[3-[(1-fluorocyclopropyl)methylcarbamoyl]phenyl]-5-methyl-6-(trifluoromethyl)pyridazine-4-carboxamide]",0.2 to 0.5,0.2 to 0.5
"COc1cc(C#N)ccc1Oc1nnc(C(F)(F)F)c(C)c1C(=O)Nc1cccc(C(=O)NCCO)c1 [Compound 1441, 3-(4-cyano-2-methoxy-phenoxy)-N-[3-(2-hydroxyethylcarbamoyl)phenyl]-5-methyl-6-(trifluoromethyl)pyridazine-4-carboxamide]",0.2 to 0.5,0.2 to 0.5
"COc1cc(C#N)ccc1Oc1nnc(C(F)(F)F)c(C)c1C(=O)Nc1cccc(C(=O)N2CC(C#N)C2)c1 [Compound 1442, N-[3-(3-cyanoazetidine-1-carbonyl)phenyl]-3-(4-cyano-2-methoxy-phenoxy)-5-methyl-6-(trifluoromethyl)pyridazine-4-carboxamide]",0.2 to 0.5,0.2 to 0.5
"COCCNC(=O)c1cccc(NC(=O)c2c(Oc3ccc(C#N)cc3OC)nnc(C(F)(F)F)c2C)c1 [Compound 1443, 3-(4-cyano-2-methoxy-phenoxy)-N-[3-(2-methoxyethylcarbamoyl)phenyl]-5-methyl-6-(trifluoromethyl)pyridazine-4-carboxamide]",0.2 to 0.5,0.2 to 0.5
"COc1cc(C#N)ccc1Oc1nnc(C(F)(F)F)c(C)c1C(=O)Nc1cccc(C(=O)NC2CCCC2C(N)=O)c1 (centres unmarked) [Compound 1444, N-[3-[(2-carbamoylcyclopentyl)carbamoyl]phenyl]-3-(4-cyano-2-methoxy-phenoxy)-5-methyl-6-(trifluoromethyl)pyridazine-4-carboxamide]",0.2 to 0.5,0.2 to 0.5
"COc1cc(C#N)ccc1Oc1nnc(C(F)(F)F)c(C)c1C(=O)Nc1cccc(C(=O)NC2CCCC2C#N)c1 (centres unmarked) [Compound 1445, N-[3-[(2-cyanocyclopentyl)carbamoyl]phenyl]-3-(4-cyano-2-methoxy-phenoxy)-5-methyl-6-(trifluoromethyl)pyridazine-4-carboxamide]",0.2 to 0.5,0.2 to 0.5
"COc1cc(C#N)ccc1Oc1nnc(-c2ccc(C#N)cc2)c(C)c1C(=O)Nc1cccc(S(C)(=N)=O)c1 (centres unmarked) [Compound 1446, 3-(4-cyano-2-methoxy-phenoxy)-6-(4-cyanophenyl)-5-methyl-N-[3-(methylsulfonimidoyl)phenyl]pyridazine-4-carboxamide]",0.02 to 0.04,0.02 to 0.04
"COc1cc(C#N)ccc1Oc1nnc(-c2cncn2C)c(C)c1C(=O)Nc1cccc(S(C)(=N)=O)c1 (centres unmarked) [Compound 1447, 3-(4-cyano-2-methoxy-phenoxy)-5-methyl-6-(3-methylimidazol-4-yl)-N-[3-(methylsulfonimidoyl)phenyl]pyridazine-4-carboxamide]",0.02 to 0.04,0.02 to 0.04
"COc1cc(C#N)ccc1Oc1nnc(-c2ccn(C)n2)c(C)c1C(=O)Nc1cccc(S(C)(=N)=O)c1 (centres unmarked) [Compound 1448, 3-(4-cyano-2-methoxy-phenoxy)-5-methyl-6-(1-methylpyrazol-3-yl)-N-[3-(methylsulfonimidoyl)phenyl]pyridazine-4-carboxamide]",0.2 to 0.5,0.2 to 0.5
"COc1cc(C#N)ccc1Oc1nnc(-c2cnc(C)s2)c(C)c1C(=O)Nc1cccc(S(C)(=N)=O)c1 (centres unmarked) [Compound 1449, 3-(4-cyano-2-methoxy-phenoxy)-5-methyl-N-[3-(methylsulfonimidoyl)phenyl]-6-(2-methylthiazol-5-yl)pyridazine-4-carboxamide]",0.2 to 0.5,0.2 to 0.5
